Results reported in patent publication US20240100023A1, “Compositions and Methods For Treating Spinal Cord Injuries” (priority 2020, published 2024).

What was measured:
[1] = system: evoked fEPSPs in rat hippocampus; experiment: Evoked fEPSPs in rat hippocampus in vivo (perforant path / dentate gyrus); design: species or system Rat (Long Evans); settings: for Minimum Effective Dose, effect on evoked fEPSPs in rat hippocampus: Rat (Long Evans), IP; for Effect on evoked fEPSP / EPSP amplitude: anesthetized rat, intraperitoneal
Protocol: Further selection and characterization of ampakines to identify SCI recovery drugs useful within the invention involved electrophysiological studies (to measure “electrically evoked field excitatory postsynaptic potentials” (fEPSPs) for test compounds). CX717 and CX1739 were tested for their ability to facilitate synaptic responses in vivo in anesthetized animals following peripheral administration. Stimulating and recording electrodes were inserted into the perforant path and dentate gyrus of the hippocampus, respectively. Electrically evoked field excitatory postsynaptic responses (fEPSPs) were measured before administration of ampakines, and for approximately 2 hours following intraperitoneal administration of ampakines.
Electrically evoked field excitatory postsynaptic potentials (fEPSPs) were determined for the exemplary test ampakines CX717 and CX1739 as described. […] The response magnitude was related to the plasma levels achieved during the study. […] Both ampakines appear to produce a 25% maximum increase in fEPSP amplitude.

LTP in rat hippocampus = experiment: Induction of LTP in rat hippocampus in vivo; design: species or system Rat (Long Evans); settings: for Minimum Effective Dose, effect on induction of LTP in rat hippocampus: Rat (Long Evans), IP
Rat (SD) [2] = experiment: Radial arm maze - spatial memory; assay type: in vivo; settings: for Minimum Effective Dose, radial arm maze - spatial memory: Rat (SD), IP
Protocol: Yet another animal model for evaluating ampakine drug activity employed herein is the well-known and widely accepted Radial Arm Maze model. CX717 was tested for its ability to improve the performance of aged rats in an eight-arm radial maze using a cross-over design study. This behavioral test uses a standard eight-arm radial maze wherein five arms were open and baited with food pellets for the first morning session. Each animal was allowed to consume the food rewards present in the open arms and was then returned to its home cage. Six hours later animals were returned to the maze, wherein all eight-arms were open, but only the three arms previously closed contained food rewards. Scoring was based on the number of correct choices before an incorrect choice (re-entering an arm that was visited during the morning acquisition session) was made and on the total number of incorrect choices made before all three of the still baited arms were visited. CX717 was tested at six doses (0.03, 0.1, 0.3, 1, 3 and 10 mg/kg in hydroxypropyl β-cyclodextran, i.p.), administered 30 min prior to the start of the morning acquisition session and no drug was given prior to the second trial six hours later.
For CX1739 male Sprague-Dawley rats were trained to perform the win shift assay on the radial arm maze for approximately 10 weeks prior to the study. On each day of training and testing, each rat completed one trial, split into a sample phase and a test phase. During the sample phase, the rat was placed on a 12-arm radial arm maze surrounded by visual cues. Food wells at the end of each arm were baited with sucrose pellets but access to three arms, selected randomly, was blocked with a clear plastic divider at the arm entrance. The rat was allowed 5 minutes to search the maze and collect the available food pellets before being removed from the maze. Fifteen minutes later the rat was returned to the maze for the test phase of the trial. During the test phase, the rat was allowed access to all 12 arms of the maze but only the arms that had been blocked previously were baited with sucrose pellets. […]

Mouse (CD1) = experiment: Amphetamine-stimulated locomotion in mice; assay type: in vivo; settings: for Minimum Effective Dose, amphetamine-stimulated locomotion: Mouse (CD1), IP; for Dose producing a significant decrease in amphetamine-stimulated locomotion: mice, amphetamine 2 mg/kg i.p.
Protocol: (§1) Effects of exemplary low impact ampakines were also evaluated in mice for the ability to inhibit amphetamine-stimulated locomotor activity. Mice were placed in the locomotor chamber for 20 min to habituate, removed, injected with either vehicle or SCI recovery ampakine (CX717), and 5 min later injected with 2 mg/kg i.p. Amphetamine Mice were returned to the locomotor chamber 10 min later, and their activity measured for a further 15 min. In related studies, adult male CD1 mice or male Sprague-Dawley rats were acclimated in a test chamber for 20 minutes removed and dosed i.p. (mice) or orally (rats) with CX1739, vehicle, or a reference compound. Five (mice) or 10 (rats) were then injected with amphetamine (2 mg/kg, i.p.) or saline vehicle and were returned to the activity test chamber.

Rat (SD) [3] = experiment: Amphetamine-stimulated locomotion and rearing in rats; assay type: in vivo; settings: for Minimum Effective Dose, amphetamine-stimulated locomotion and rearing: Rat (SD), PO
Protocol: as §1

[4] = Phase 1 studies in healthy volunteers (safety, pharmacokinetics); assay type: in vivo, human
[5] = system: unanesthetized, freely moving rats; experiment: Diaphragm EMG and plethysmography in awake rats after C2Hx; assay type: in vivo, Rat
Protocol: Low dose ampakine treatment was evaluated in awake, freely moving subjects to determine whether this treatment would safely and effectively increase diaphragm activity impaired due to acute- or sub-acute cervical SCI. In a placebo-controlled experiment with freely-moving non-anesthetized rats, ventilation and metabolic rate (VCO2) were measured using whole body plethysmography and diaphragm EMG using in-dwelling muscle electrodes. Diaphragm electromyography (EMG) was recorded using chronic in-dwelling electrodes in unanesthetized, freely moving rats. A spinal hemilesion was induced at C2 (C2Hx), and rats were studied at 4- and 14-days post injury during quiet room air breathing and acute respiratory challenge accomplished by inspiring 10% O2, 7% CO2 gas mixture. At 4 and 14 days following C2 spinal hemisection injury (C2Hx), rats were given a single intravenous bolus of CX717 (5 mg/kg, n=8), CX1739 (5 mg/kg, n=8) or vehicle (2-hydroxypropyl-beta-cyclodextrin; HPCD; n=8) (FIG. 22). Hemisectional spinal surgery results in reduced diaphragm activity as measured by EMG and plethysmography (FIG. 23).

[6] = 14 days post injury, baseline breathing, 5 mg/kg i.v.

O=C(c1ccc2nonc2c1)N1CCOCC1 [CX717, 1-(benzofurazan-5-ylcarbonyl)morpholine]
Minimum Effective Dose, effect on evoked fEPSPs in rat hippocampus [1]: 5 mg/kg | Effect on evoked fEPSP / EPSP amplitude [1]: long-lasting increase | Minimum Effective Dose, effect on induction of LTP in rat hippocampus (LTP in rat hippocampus): 2 mg/kg | Minimum Effective Dose, radial arm maze - spatial memory (Rat (SD) [2]): 0.3 mg/kg | Minimum Effective Dose, amphetamine-stimulated locomotion (Mouse (CD1)): 18 mg/kg | Dose producing a significant decrease in amphetamine-stimulated locomotion (Mouse (CD1)): 3 mg/kg | Minimum Effective Dose, amphetamine-stimulated locomotion and rearing (Rat (SD) [3]): 1 mg/kg | Half-life compared with CX516 ([4]; species not stated): significantly longer half-lives than CX516 | Increase in tidal volume [5, 6]: ~20% | Increase of peak inspiratory ipsilateral diaphragm EMG activity [5, 6]: ~30%

CN(C(=O)c1ccc2nonc2c1)C1CCOCC1 [CX1739, N-Methyl-N-tetrahydro-2H-pyran-4-yl-[2,1,3]-benzoxadiazole-5-carboxamide]
Minimum Effective Dose, effect on evoked fEPSPs in rat hippocampus [1]: 5 mg/kg | Effect on evoked fEPSP / EPSP amplitude [1]: substantial increase | Effect on LTP after tetanic stimulation (LTP in rat hippocampus; 3 mg/kg, 15 minutes prior to tetanic stimulation): statistically significant increase in LTP | Minimum Effective Dose, effect on induction of LTP in rat hippocampus (LTP in rat hippocampus): 3 mg/kg | Minimum Effective Dose, radial arm maze - spatial memory (Rat (SD) [2]): 0.3 mg/kg | Dose producing the maximal effect / optimal dose in the maze assays (Rat (SD) [2]; ip): 0.3 mg/kg | Minimum Effective Dose, amphetamine-stimulated locomotion (Mouse (CD1)): 30 mg/kg | Dose producing a significant decrease in amphetamine-stimulated locomotion (Mouse (CD1)): 30 mg/kg | Minimum Effective Dose, amphetamine-stimulated locomotion and rearing (Rat (SD) [3]): 1 mg/kg | Amphetamine-stimulated rearing behavior in rats (Rat (SD) [3]; rats, all doses tested): modest reduction | Half-life compared with CX516 ([4]; human, in vivo): significantly longer half-lives than CX516 | Increase in tidal volume ([5]; 4-day time point, 5 mg/kg intravenous bolus): 20% | Tidal volume during hypoxia-hypercapnia challenge ([5]; 10% O2, 7% CO2, follows the 4-day results): larger increase in tidal volume | Increase in tidal volume [5, 6]: no change in tidal volume | Increase of peak inspiratory ipsilateral diaphragm EMG activity [5, 6]: ~10%
